Measurements taken from PubChem BioAssay (NCI).
Values joined by “and” are separate entries in the source; they are usually repeats but may differ in a detail not shown here. Equal entries are not always repeated.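 A five-concentration, 48-hour dose response in 96-well plates underlies each endpoint, interpolated linearly between surrounding concentrations. The concentration for 50% growth inhibition is given as GI50. At the TGI there is no net growth.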

Assays:
Assay in all cases: NCI anticancer screen, dose series, 48 h
DMS 273 small cell lung = tested on: DMS 273 small cell lung
SNB-78 CNS = tested on: SNB-78 CNS
XF 498 CNS = tested on: XF 498 CNS
DMS 114 small cell lung = tested on: DMS 114 small cell lung
RXF-631 renal = tested on: RXF-631 renal
HOP-18 NSCLC = tested on: HOP-18 NSCLC
DLD-1 colon = tested on: DLD-1 colon
PC-3 prostate = tested on: PC-3 prostate
MDA-N = tested on: MDA-N

COC(=O)/C(=N/O)C(C(=O)C=C(C)C)C(=O)C(=O)Nc1nc2ccc([N+](=O)[O-])cc2s1 (centres undefined)
TGI (DMS 273 small cell lung): > 100 µM | TGI (SNB-78 CNS): > 100 µM | TGI (XF 498 CNS): > 100 µM

O=C1NCCS(=O)(=O)N[C@@H](CC2=CC=CCC2)C(=O)N2CCCC12 (some centres undefined)
TGI (DMS 273 small cell lung): > 100 µM | TGI (DMS 114 small cell lung): > 100 µM | TGI (RXF-631 renal): > 100 µM | TGI (SNB-78 CNS): > 100 µM | TGI (HOP-18 NSCLC): > 100 µM | TGI (XF 498 CNS): > 100 µM | TGI (DLD-1 colon): > 100 µM

NNCCc1ccc(NC(=O)CCCc2ccc(C(=O)Nc3ccccc3N)cc2)cc1
GI50 (PC-3 prostate): 12 µM | TGI (PC-3 prostate): > 100 µM

Cn1cc(-c2csc(-c3cn(CCCCN4CCCCC4)c4ccccc34)n2)c2cccnc21
GI50 (PC-3 prostate): 1.61 µM | TGI (PC-3 prostate): 3.03 µM

O=[N+]([O-])c1cccc(C2=NOC(C3CCCCC3)C2)c1 (centres undefined)
TGI (DMS 273 small cell lung): > 100 µM | TGI (DMS 114 small cell lung): > 100 µM | TGI (RXF-631 renal): > 100 µM | TGI (SNB-78 CNS): > 100 µM | TGI (HOP-18 NSCLC): > 100 µM | TGI (DLD-1 colon): > 100 µM

CC(C)CC(C/C=C1/CC(CO)(COC(=O)C(C)(C)C)OC1=O)CC(C)C (centres undefined)
TGI (PC-3 prostate): 21.2 µM and 21.6 µM | GI50 (MDA-N): 0.2 µM and 0.849 µM | TGI (MDA-N): 6.28 µM and 17.6 µM

COc1ccc(-c2nccn2-c2ccc(OC)cc2)cc1
GI50 (PC-3 prostate): 24.9 µM | TGI (PC-3 prostate): > 100 µM

CC1CC(O)C(=O)C(O[C@@H]2C[C@@H]3CC[C@@H]4[C@H](CC[C@]5(C)C(C6=CC(=O)OC6)CC[C@]45O)[C@@]3(C=O)C[C@H]2O)O1 (some centres undefined)
TGI (PC-3 prostate): < 0.0424 µM | TGI (MDA-N): 0.199 µM

COc1c(C)n(CCO)ccc1=O
TGI (DMS 273 small cell lung): > 100 µM | TGI (DMS 114 small cell lung): > 100 µM | TGI (RXF-631 renal): > 100 µM | TGI (SNB-78 CNS): > 100 µM | TGI (XF 498 CNS): > 100 µM | TGI (DLD-1 colon): > 100 µM

CCOC(=O)NC(=O)c1cn(C(CC)COC(=O)NCCCCCCNC(=O)OCC(CC)n2cc(C(=O)NC(=O)OCC)c(=O)[nH]c2=O)c(=O)[nH]c1=O (centres undefined)
TGI (DMS 273 small cell lung): > 100 µM | TGI (DMS 114 small cell lung): > 100 µM | TGI (SNB-78 CNS): > 100 µM | TGI (HOP-18 NSCLC): > 100 µM

CCCC/C(=C\C1=C(C)C(=O)C(OC)=C(OC)C1=O)C(=O)O
GI50 (PC-3 prostate): > 100 µM | TGI (PC-3 prostate): > 100 µM

CCCC(=O)C1=C(O)C(Cc2c(O)c(C)c(O)c(C(=O)CCC)c2O)=C(O)C(C)(C)C1=O
TGI (PC-3 prostate): > 50 µM | TGI (MDA-N): > 50 µM

Nc1nc(-c2ccc(Cl)c([N+](=O)[O-])c2)cs1
TGI (DMS 273 small cell lung): > 100 µM | TGI (DMS 114 small cell lung): > 100 µM | TGI (RXF-631 renal): > 100 µM | TGI (SNB-78 CNS): > 100 µM | TGI (HOP-18 NSCLC): > 100 µM | TGI (XF 498 CNS): 86.6 µM | TGI (DLD-1 colon): > 100 µM

C#CCOc1cccc(Nc2ncnc3c(NC(=O)C=C)cccc23)c1
GI50 (PC-3 prostate): 15.9 µM | TGI (PC-3 prostate): 67.1 µM

COC(=O)C(=O)C(C(C)=O)C(=O)NCc1ccc(OC)c(OC)c1 (centres undefined)
TGI (DMS 273 small cell lung): > 100 µM | TGI (DMS 114 small cell lung): > 100 µM | TGI (RXF-631 renal): > 100 µM | TGI (SNB-78 CNS): > 100 µM | TGI (HOP-18 NSCLC): > 100 µM | TGI (XF 498 CNS): > 100 µM | TGI (DLD-1 colon): > 100 µM

ClCCN(CCCl)c1ccc(CNc2ccccc2)cc1
GI50 (PC-3 prostate): 11.6 µM | TGI (PC-3 prostate): > 100 µM

CCc1ccc2c(c1)C(=O)c1c-2n(CCCN=[N+]=[N-])c(=O)c2cc([N+](=O)[O-])ccc12
GI50 (PC-3 prostate): > 50 µM | TGI (PC-3 prostate): > 50 µM

O=c1[nH]cnc(NC2C=C(CO)C(O)C2O)c1[N+](=O)[O-] (centres undefined)
TGI (DMS 273 small cell lung): > 66.1 µM | TGI (DMS 114 small cell lung): > 84.7 µM | TGI (SNB-78 CNS): > 100 µM | TGI (HOP-18 NSCLC): > 100 µM | TGI (XF 498 CNS): > 100 µM | TGI (DLD-1 colon): > 100 µM

CCN(CC)CCCCCCNc1cccc2cc(Br)cnc12
GI50 (PC-3 prostate): 3.6 µM | TGI (PC-3 prostate): 17 µM

COC(c1ccc(C(C)(C)C)cc1)(c1ccc(C(C)(C)C)cc1)c1ccc(C(C)(C)C)cc1
TGI (PC-3 prostate): > 100 µM | TGI (MDA-N): > 100 µM

Cc1ccc(C)c(N2C/C(=N\NC(=O)CC#N)C(c3nc4ccccc4s3)C(=O)C2=O)c1 (centres undefined)
TGI (DMS 273 small cell lung): > 100 µM | TGI (DMS 114 small cell lung): > 100 µM | TGI (SNB-78 CNS): > 100 µM | TGI (HOP-18 NSCLC): > 100 µM | TGI (XF 498 CNS): > 100 µM | TGI (DLD-1 colon): > 100 µM

N#CCCN1C/C(=C/c2ccc(Br)cc2)C(=O)/C(=C/c2ccc(Br)cc2)C1
GI50 (PC-3 prostate): 1.51 µM | TGI (PC-3 prostate): 7.54 µM

Cn1c(=O)nc2n(-c3cc(C(F)(F)F)cc(C(F)(F)F)c3)c3ccccc3nc-2c1=O
TGI (DMS 273 small cell lung): > 100 µM | TGI (DMS 114 small cell lung): > 100 µM | TGI (SNB-78 CNS): > 100 µM | TGI (XF 498 CNS): > 100 µM

Nc1c(-c2ccccc2-c2c(N)[n+]([O-])c3ccccc3[n+]2[O-])[n+]([O-])c2ccccc2[n+]1[O-]
TGI (DMS 273 small cell lung): 38.7 µM | TGI (DMS 114 small cell lung): 27.2 µM | TGI (SNB-78 CNS): > 100 µM | TGI (HOP-18 NSCLC): > 86 µM | TGI (DLD-1 colon): > 100 µM

CC1=C(C#N)C(=O)CC(c2ccc(Cl)cc2)N(C)N1 (centres undefined)
TGI (DMS 114 small cell lung): > 100 µM | TGI (SNB-78 CNS): > 100 µM | TGI (HOP-18 NSCLC): > 100 µM | TGI (XF 498 CNS): > 100 µM | TGI (DLD-1 colon): > 100 µM

COc1ccc(C(=O)c2cc(OC)c(OC)c(OC)c2)cc1OC
TGI (PC-3 prostate): > 100 µM | TGI (MDA-N): > 100 µM

CC(=O)N1CCN(c2ccc(OCC3COC(Cn4ccnc4)(c4ccc(Cl)cc4Cl)O3)cc2)CC1 (centres undefined)
TGI (DMS 273 small cell lung): 61.4 µM | TGI (DMS 114 small cell lung): 43.7 µM | TGI (HOP-18 NSCLC): > 100 µM | TGI (DLD-1 colon): > 100 µM

COc1ccc(-c2oc(/C=N/NC(N)=S)c([N+](=O)[O-])c2-c2ccc(OC)c(OC)c2)cc1OC
TGI (DMS 114 small cell lung): 46.8 µM | TGI (RXF-631 renal): > 100 µM | TGI (XF 498 CNS): > 100 µM | TGI (DLD-1 colon): > 100 µM

O=C(c1ccco1)c1c(C(F)(F)F)n([O-])c2ccc(C(F)(F)F)cc2[n+]1=O
GI50 (PC-3 prostate): 0.132 µM | TGI (PC-3 prostate): 0.262 µM

CCCc1cc(=O)n2c(C(=O)Nc3ccc(Cl)cc3C)c(C(=O)Nc3ccc(F)cc3)sc2n1
GI50 (PC-3 prostate): 2.07 µM | TGI (PC-3 prostate): 11 µM

CCCCCCCCCCNC(=O)CI
GI50 (PC-3 prostate): 1.8 µM | TGI (PC-3 prostate): 3.56 µM

CCN1c2ccccc2-c2c3c1cc(C)cc3c1ccccc1[n+]2CC
TGI (DMS 273 small cell lung): 1.58 µM | TGI (DMS 114 small cell lung): 5.84 µM | TGI (RXF-631 renal): 43.4 µM | TGI (SNB-78 CNS): 12 µM | TGI (DLD-1 colon): 17.8 µM

Cc1cccc(C2=C/C(=C(\SS/C(C(=O)c3ccc(OCC(=O)O)c(Cl)c3Cl)=C3\C=C(c4cccc(C)c4)SS3)C(=O)c3ccc(OCC(=O)O)c(Cl)c3Cl)SS2)c1
TGI (DMS 273 small cell lung): 83.6 µM | TGI (DMS 114 small cell lung): 17.7 µM | TGI (SNB-78 CNS): 80.6 µM | TGI (HOP-18 NSCLC): 50.5 µM | TGI (XF 498 CNS): 54.6 µM | TGI (DLD-1 colon): > 100 µM

Nc1cc(Br)c(-c2nnc(CCC(=O)c3nc4ccccc4[nH]3)o2)c(Br)c1
GI50 (PC-3 prostate): 2.9 µM | TGI (PC-3 prostate): > 100 µM

CCOP(=O)(OCC)C(C(=O)OC)C(=O)C(=O)Nc1ccc(Cl)cc1Cl (centres undefined)
TGI (DMS 273 small cell lung): > 100 µM | TGI (DMS 114 small cell lung): > 100 µM | TGI (SNB-78 CNS): > 100 µM | TGI (HOP-18 NSCLC): > 100 µM | TGI (DLD-1 colon): > 100 µM

O=C1Nc2ccccc2/C1=C1\CCc2cc(O)ccc21
GI50 (PC-3 prostate): 12.4 µM | TGI (PC-3 prostate): > 25 µM
